How the values were obtained:
Assay type in all cases: biochemical
[1] = biological target: T1, Yes (Homo sapiens, UniProt P07947); experiment: Z'-Lyte FRET kinase assay (Invitrogen), Yes; conditions: read-out: IC50, activity toward kinase Yes
T1 construct: purchased Invitrogen (Carlsbad, Calif.), screening service
Description: The effect of potential modulators of kinase activity can be measured in a variety of different assays known in the art. For example, direct radiometric, indirect FRET or AlphaScreen assays may be used to assess the level of phosphorylation of a substrate in the presence of test compounds in order to determine the inhibitory affect of the compound on the kinase. Invitrogen (Carlsbad, Calif.) uses a FRET based assay for Btk, EGFR, EphB2, Flt3, lrak4, Kdr, MAP2K1, MAPKAPK2, PDGFRB, PKC theta, Stk6 and Yes. For these assays, compounds of the invention were screened by Invitrogen using Z′-Lyte™ kinase assay.
Briefly, the Invitrogen kinase assay involves use of a specific peptide substrate optimized for each kinase, containing a fluorophore at each end that make up the FRET pair. The peptide sensitivity to proteolytic cleavage depends on phosphorylation of the peptide. Non-phosphorylated peptide is cleaved by a protease while peptide phosphorylated by the kinase is not cleaved. Cleavage of the peptide disrupts the FRET between the donor (coumarin) and acceptor (fluorescein) fluorophores, resulting in an increase in the ratio of donor emission to acceptor emission. The emission ratio of coumarin to fluorescein is used to assess the reaction progress. The extent of phosphorylation is determined from the emission ratio, which is low when the kinase is active (phosphorylated peptide is not cleaved, FRET pair connected) or higher for inhibited kinase (non-phosphorylated peptide is cleaved, FRET pair separated). Thus, the assay involves a kinase reaction in the presence of varying concentrations of a given compound, a development reaction with site specific protease, and detection of the fluorescent emission ratio of coumarin and fluorscein. […] Reaction conditions for each kinase are determined to provide optimal reaction times, incubation temperature, kinase and ATP concentrations. Test samples are made up in 1× kinase buffer (50 mM HEPES pH 7.5, 50 mM MgCl2, 5 mM EGTA, 0.05% BRIJ-35) and compound at desired concentration prepared in DMSO such that the final DMSO is 1%. […] Typically, assay plates are prepared to 10 μl final volume per sample, adding 2.5 μl of compound at 4× the desired concentration in 4% DMSO (serial dilution of compound provides concentration curve), 5 μl of the desired kinase mixed with Z′-LYTE™ peptide substrate (2× in 2× kinase buffer, final peptide at 2 μM), and 2.5 μl of 4×ATP solution. All kinase except for MAP2K1 were at 10 μM ATP in the kinase reaction, while MAP2K1 was at 100 μM. Samples are mixed and the kinase reaction is incubated 1 hour at room temperature, after which 5 μl of development solution is added and mixed. After incubation for another 1 hour at room temperature, 5 μl of stop reagent is added to each sample and mixed. The fluorescence signals are measured to determine the emission ratio.

[2] = biological target: T2, Kdr (Homo sapiens, UniProt P35968); experiment: Z'-Lyte FRET kinase assay (Invitrogen), Kdr; conditions: read-out: IC50, activity toward kinase Kdr
T2 construct: purchased Invitrogen (assay run by Invitrogen)
T2 sequence (P35968 20-1356): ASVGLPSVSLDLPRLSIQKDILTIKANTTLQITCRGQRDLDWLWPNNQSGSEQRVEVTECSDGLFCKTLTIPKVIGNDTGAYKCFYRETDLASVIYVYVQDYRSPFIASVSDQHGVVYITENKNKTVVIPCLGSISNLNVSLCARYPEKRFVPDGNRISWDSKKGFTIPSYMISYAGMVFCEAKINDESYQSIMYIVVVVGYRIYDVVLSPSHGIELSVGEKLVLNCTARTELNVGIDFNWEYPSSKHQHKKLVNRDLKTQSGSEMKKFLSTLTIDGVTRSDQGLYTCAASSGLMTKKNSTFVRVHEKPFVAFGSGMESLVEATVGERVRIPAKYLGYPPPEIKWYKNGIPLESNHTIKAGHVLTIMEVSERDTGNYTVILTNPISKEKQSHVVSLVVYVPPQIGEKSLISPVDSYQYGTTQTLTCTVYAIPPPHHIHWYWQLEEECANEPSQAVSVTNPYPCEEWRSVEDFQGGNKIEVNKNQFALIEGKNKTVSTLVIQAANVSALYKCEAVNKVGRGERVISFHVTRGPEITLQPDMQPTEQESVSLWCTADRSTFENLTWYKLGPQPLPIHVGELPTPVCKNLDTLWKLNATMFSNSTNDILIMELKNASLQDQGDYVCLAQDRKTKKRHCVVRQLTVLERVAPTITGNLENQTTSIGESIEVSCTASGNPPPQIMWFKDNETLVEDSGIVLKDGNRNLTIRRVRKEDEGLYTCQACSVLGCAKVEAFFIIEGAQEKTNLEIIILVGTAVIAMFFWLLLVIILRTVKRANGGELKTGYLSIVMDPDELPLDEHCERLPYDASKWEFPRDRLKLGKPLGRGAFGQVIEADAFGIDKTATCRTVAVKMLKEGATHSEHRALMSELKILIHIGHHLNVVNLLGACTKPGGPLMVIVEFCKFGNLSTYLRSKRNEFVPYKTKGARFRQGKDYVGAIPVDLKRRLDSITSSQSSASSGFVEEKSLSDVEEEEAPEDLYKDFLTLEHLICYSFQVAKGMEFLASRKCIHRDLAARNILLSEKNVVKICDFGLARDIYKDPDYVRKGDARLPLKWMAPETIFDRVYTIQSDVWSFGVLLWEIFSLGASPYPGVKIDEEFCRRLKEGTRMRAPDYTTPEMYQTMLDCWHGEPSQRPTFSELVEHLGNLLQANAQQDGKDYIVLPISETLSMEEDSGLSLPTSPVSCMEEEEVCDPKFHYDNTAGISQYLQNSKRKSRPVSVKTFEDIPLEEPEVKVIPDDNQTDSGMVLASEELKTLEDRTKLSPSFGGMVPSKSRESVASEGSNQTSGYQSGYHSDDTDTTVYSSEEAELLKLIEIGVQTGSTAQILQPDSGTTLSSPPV

[3] = biological target: T3, FGFR1 (Homo sapiens, UniProt P11362, C488A/C584S); experiment: AlphaScreen kinase assay, FGFR1; conditions: read-out: IC50, activity toward kinase FGFR
T3 construct: P1351.pET N6 BI-PTP FGFR A458-E765-X C488A, C584S; made in house; host or cells: E. coli (PTP1B co-expressed)
T3 sequence (P11362 458-765 C488A/C584S): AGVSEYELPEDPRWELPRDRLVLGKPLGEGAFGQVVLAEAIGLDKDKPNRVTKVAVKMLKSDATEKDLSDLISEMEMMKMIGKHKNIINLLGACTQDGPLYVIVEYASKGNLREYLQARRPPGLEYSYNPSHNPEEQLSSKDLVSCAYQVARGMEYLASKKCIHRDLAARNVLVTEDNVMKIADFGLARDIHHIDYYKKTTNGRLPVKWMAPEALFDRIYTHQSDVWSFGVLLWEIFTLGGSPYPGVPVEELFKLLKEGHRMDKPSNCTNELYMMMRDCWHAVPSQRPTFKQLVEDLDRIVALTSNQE

[4] = biological target: T4, B-Raf V600E (Homo sapiens, UniProt P15056, V600E); experiment: AlphaScreen kinase assay, B-Raf V600E; conditions: read-out: IC50, activity toward kinase B-Raf V600E
T4 construct: P4254. pFastBacBD-CDC37 BRAF D437-K722-X, V600E; His6 with pFastBac HT leader (TEV site) (N); made in house; host or cells: Sf9 (baculovirus; chaperone CDC37 co-expressed)

[5] = biological target: T5, Ret (Homo sapiens, UniProt P07949); experiment: AlphaScreen kinase assay, Ret; conditions: read-out: IC50, activity toward kinase Ret
T5 construct: P1378.pET-SF BI-PTP RET H661-R1012 HIS; made in house
T5 sequence (P07949 with tags, fused parts or gaps): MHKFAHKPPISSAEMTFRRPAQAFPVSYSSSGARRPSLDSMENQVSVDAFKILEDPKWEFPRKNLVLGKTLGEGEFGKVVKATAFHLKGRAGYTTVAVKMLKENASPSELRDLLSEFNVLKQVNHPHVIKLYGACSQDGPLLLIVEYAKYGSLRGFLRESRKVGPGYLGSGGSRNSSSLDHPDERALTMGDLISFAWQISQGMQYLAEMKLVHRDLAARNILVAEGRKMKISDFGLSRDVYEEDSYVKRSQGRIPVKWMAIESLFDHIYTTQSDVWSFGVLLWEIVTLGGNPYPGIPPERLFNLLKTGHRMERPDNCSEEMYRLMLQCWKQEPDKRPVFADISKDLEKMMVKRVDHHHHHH

[6] = biological target: T6, Fms (Homo sapiens, UniProt P07333); experiment: AlphaScreen kinase assay, Fms; conditions: read-out: IC50, activity toward kinase Fms
T6 construct: purchased Upstate Biotechnology
T6 sequence (P07333 20-972): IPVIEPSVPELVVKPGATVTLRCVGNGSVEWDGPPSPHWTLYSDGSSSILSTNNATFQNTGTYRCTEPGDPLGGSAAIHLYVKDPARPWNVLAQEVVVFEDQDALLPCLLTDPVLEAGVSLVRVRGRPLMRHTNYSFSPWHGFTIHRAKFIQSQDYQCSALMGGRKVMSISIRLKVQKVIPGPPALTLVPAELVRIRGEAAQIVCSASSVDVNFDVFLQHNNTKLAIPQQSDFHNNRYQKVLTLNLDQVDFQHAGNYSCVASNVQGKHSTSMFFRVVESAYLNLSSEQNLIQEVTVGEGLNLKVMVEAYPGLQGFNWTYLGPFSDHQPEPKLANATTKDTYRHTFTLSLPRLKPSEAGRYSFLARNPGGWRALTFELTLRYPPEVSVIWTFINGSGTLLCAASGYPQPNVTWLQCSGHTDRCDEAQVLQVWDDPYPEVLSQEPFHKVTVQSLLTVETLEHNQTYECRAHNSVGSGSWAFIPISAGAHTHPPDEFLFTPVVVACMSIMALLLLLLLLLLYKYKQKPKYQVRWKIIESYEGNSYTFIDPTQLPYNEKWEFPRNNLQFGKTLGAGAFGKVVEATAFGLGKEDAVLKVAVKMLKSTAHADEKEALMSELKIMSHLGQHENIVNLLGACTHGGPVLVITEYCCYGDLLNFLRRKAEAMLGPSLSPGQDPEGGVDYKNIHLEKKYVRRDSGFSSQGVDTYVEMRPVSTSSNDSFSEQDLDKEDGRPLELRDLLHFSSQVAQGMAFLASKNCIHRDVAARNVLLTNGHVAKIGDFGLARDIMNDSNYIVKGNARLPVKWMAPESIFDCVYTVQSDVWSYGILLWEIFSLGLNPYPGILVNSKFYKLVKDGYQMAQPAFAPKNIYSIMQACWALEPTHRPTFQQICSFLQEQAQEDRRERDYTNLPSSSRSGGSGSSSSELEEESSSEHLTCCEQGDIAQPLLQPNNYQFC

[7] = biological target: T7, Kit (Homo sapiens, UniProt P10721); experiment: AlphaScreen kinase assay, Kit; conditions: read-out: IC50, activity toward kinase Kit
T7 construct: P1332.N6 BI PTP KIT M552-K948-X COD; His6 (N); made in house; host or cells: E. coli (PTP1B co-expressed)
T7 sequence (P10721 with tags, fused parts or gaps): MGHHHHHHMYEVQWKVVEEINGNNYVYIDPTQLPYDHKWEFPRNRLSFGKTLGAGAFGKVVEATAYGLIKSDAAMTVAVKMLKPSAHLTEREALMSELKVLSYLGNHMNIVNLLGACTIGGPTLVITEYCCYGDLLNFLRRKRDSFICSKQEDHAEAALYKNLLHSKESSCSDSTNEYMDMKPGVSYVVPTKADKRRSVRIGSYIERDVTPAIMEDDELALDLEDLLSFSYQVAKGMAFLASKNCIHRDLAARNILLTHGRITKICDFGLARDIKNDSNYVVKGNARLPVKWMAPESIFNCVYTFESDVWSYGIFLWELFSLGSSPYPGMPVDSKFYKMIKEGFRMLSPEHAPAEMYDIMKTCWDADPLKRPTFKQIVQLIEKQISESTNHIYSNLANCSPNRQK

[8] = biological target: T8, B-Raf (Homo sapiens, UniProt P15056); experiment: AlphaScreen kinase assay, B-Raf; conditions: read-out: IC50, activity toward kinase B-Raf
T8 construct: purchased Upstate Biotechnology

[9] = biological target: T9, Pyk2 (Homo sapiens, UniProt Q14289); experiment: AlphaScreen kinase assay, Pyk2; conditions: read-out: IC50, activity toward kinase Pyk2
T9 construct: purchased Upstate Biotechnology
T9 sequence (Q14289 whole entry): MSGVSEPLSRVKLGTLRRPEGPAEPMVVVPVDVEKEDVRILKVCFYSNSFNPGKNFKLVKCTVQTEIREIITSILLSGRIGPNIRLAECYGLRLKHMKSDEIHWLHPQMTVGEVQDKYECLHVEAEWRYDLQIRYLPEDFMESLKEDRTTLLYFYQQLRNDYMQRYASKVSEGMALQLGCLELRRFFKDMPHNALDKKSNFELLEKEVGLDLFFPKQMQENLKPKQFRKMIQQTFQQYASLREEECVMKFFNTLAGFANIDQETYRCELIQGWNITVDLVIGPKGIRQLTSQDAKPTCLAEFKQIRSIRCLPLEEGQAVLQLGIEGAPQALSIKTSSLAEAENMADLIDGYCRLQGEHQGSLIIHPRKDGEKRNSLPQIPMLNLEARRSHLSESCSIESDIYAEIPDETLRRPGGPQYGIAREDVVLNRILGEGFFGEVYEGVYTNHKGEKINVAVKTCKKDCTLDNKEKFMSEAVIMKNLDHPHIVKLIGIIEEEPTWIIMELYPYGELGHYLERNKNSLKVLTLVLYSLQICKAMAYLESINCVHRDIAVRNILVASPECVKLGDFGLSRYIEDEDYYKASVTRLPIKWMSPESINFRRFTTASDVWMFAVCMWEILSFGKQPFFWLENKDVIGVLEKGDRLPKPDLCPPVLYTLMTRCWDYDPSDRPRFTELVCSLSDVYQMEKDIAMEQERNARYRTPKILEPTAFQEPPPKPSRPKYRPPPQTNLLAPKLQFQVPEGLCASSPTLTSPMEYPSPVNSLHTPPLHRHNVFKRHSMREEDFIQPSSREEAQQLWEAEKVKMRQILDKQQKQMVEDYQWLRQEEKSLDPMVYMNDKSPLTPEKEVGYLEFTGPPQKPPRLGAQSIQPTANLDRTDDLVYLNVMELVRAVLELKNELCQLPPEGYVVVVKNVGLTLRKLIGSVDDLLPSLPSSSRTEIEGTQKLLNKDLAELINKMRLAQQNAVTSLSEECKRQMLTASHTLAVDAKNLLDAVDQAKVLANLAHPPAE

[10] = biological target: T10, Fak (Homo sapiens, UniProt Q05397); experiment: AlphaScreen kinase assay, Fak; conditions: read-out: IC50, activity toward kinase Fak
T10 construct: P1358.pFastBacHtb FAK S411-Q686-X; His6 with pFastBacHTb leader (TEV site) (N); made in house; host or cells: Sf9 (baculovirus)
T10 sequence (Q05397 411-686): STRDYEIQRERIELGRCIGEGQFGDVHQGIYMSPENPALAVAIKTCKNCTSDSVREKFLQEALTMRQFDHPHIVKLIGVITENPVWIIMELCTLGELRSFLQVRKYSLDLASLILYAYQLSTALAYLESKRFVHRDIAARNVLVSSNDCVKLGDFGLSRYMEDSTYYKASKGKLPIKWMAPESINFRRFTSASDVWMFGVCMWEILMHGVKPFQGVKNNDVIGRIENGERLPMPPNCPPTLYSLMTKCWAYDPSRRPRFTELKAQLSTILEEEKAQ

[11] = biological target: T11, c-Raf-1 (Homo sapiens, UniProt P04049); experiment: AlphaScreen kinase assay, c-Raf-1; conditions: read-out: IC50, activity toward kinase c-Raf-1
T11 construct: purchased Upstate Biotechnology

[12] = biological target: T12, Src (Homo sapiens, UniProt P12931); experiment: AlphaScreen kinase assay, Src; conditions: read-out: IC50, activity toward kinase Src
T12 construct: P1144. pET-N6 BI-PTP SRC V86-L536-X; made in house

[13] = biological target: T13, Flt1 (Homo sapiens, UniProt P17948); experiment: AlphaScreen kinase assay, Flt1; conditions: read-out: IC50, activity toward kinase Flt1
T13 construct: P1826.pETN6 BI-PTP FLT1 M799-D1165-X WT; His6 (N); made in house; host or cells: E. coli (PTP1B co-expressed)
T13 sequence (P17948 with tags, fused parts or gaps): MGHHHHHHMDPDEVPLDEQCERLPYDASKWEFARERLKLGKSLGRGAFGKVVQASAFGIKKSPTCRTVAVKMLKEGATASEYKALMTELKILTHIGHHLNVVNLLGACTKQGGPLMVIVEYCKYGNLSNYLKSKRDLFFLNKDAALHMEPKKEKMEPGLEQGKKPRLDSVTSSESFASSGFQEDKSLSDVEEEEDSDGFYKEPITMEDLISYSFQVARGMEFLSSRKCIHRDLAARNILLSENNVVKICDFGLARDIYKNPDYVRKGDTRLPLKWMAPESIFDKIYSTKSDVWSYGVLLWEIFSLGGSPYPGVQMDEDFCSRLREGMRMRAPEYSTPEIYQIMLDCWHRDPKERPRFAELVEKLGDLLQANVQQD

[14] = biological target: T14, Jnk3 (Homo sapiens, UniProt P53779); experiment: AlphaScreen kinase assay, Jnk3; conditions: read-out: IC50, activity toward kinase Jnk3
T14 construct: purchased Upstate Biotechnology

[15] = biological target: T15, Jnk2 (Homo sapiens, UniProt P45984); experiment: AlphaScreen kinase assay, Jnk2; conditions: read-out: IC50, activity toward kinase Jnk2
T15 construct: purchased Roche Protein Expression Group (Indianapolis, IN)
How it was run: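 Biotinylated peptide substrate phosphorylation detected by AlphaScreen with phospho-specific antibody acceptor beads and streptavidin donor beads. Compounds tested as 8-point 1:3 serial dilutions from 20 mM DMSO stocks.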

[16] = biological target: T16, Jnk1 (Homo sapiens, UniProt P45983); experiment: AlphaScreen kinase assay, Jnk1; conditions: read-out: IC50, activity toward kinase Jnk1
T16 construct: purchased Upstate Biotechnology

Measured: IC50

T1 sequence (P07947 whole entry): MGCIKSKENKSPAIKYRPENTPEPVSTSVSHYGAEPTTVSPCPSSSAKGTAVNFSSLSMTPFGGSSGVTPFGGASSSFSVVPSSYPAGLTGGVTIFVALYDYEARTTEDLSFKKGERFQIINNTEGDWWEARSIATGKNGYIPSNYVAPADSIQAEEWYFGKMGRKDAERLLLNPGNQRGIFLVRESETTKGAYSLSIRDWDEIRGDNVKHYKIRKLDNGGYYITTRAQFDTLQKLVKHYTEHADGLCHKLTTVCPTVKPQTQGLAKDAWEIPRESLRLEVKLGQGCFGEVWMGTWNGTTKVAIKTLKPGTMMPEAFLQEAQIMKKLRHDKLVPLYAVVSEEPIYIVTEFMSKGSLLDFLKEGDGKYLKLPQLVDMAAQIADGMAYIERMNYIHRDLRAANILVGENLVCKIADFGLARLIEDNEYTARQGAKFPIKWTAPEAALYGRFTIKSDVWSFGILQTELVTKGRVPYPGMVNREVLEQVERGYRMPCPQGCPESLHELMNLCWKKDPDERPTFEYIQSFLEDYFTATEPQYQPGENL

COc1cccc(C(O)c2c[nH]c3ncc(-c4cccs4)cc23)c1 (stereo not drawn) [Compound P-0161]
≤ 10 µM: [1] | [2]

COc1ccc(F)c(C(=O)c2c[nH]c3nccc(Cl)c23)c1 [Compound P-0175]
≤ 10 µM: [3] | [4] | [1] | [5] | [6] | [7] | [2]

O=C(c1cccc(O)c1)c1c[nH]c2ncc(-c3ccccc3)cc12 [Compound P-0230]
≤ 10 µM: [1] | [2]

CC(=O)Oc1cccc(C(=O)c2c[nH]c3ncc(Br)cc23)c1C [Compound P-0271]
≤ 10 µM: [3] | [4] | [1] | [8]

O=C(c1ccc(NCc2cccc(F)c2)nc1)c1c[nH]c2ncccc12 [Compound P-0327]
≤ 10 µM: [1] | [6]

O=C(Nc1ccc(F)c(Cc2c[nH]c3ncc(-c4cccnc4)cc23)c1F)OCc1ccccc1 [Compound P-0396, [2,4-Difluoro-3-(5-pyridin-3-yl-1H-pyrrolo[2,3-b]pyridin-3-ylmethyl)-phenyl]-carbamic acid benzyl ester]
not listed: [1] | [2] | [13] | [14] | [15] | [16]
≤ 10 µM: all other assays above

O=C(c1ccc(NCc2ccccc2)nc1)c1c[nH]c2ncccc12 [Compound P-0483]
≤ 10 µM: [13] | [3] | [4] | [12] | [1] | [6] | [14]

COC(=O)Nc1ccc(F)c(C(=O)c2c[nH]c3ncc(-c4cccnc4)cc23)c1F [Compound P-0486, [2,4-Difluoro-3-(5-pyridin-3-yl-1H-pyrrolo[2,3-b]pyridine-3-carbonyl)-phenyl]-carbamic acid methyl ester]
not listed: [1] | [2] | [7] | [12] | [14]
≤ 10 µM: all other assays above

CCCC(=O)Nc1ccc(F)c(Cc2c[nH]c3ncc(-c4cccc(C(N)=O)c4)cc23)c1F [Compound P-1281]
≤ 10 µM: [9] | [10] | [3] | [16] | [4] | [12] | [6] | [7] | [8]

Nc1cccc(-c2cnc3[nH]cc(Cc4ccccc4F)c3c2)c1 [Compound P-1349]
≤ 10 µM: [9] | [10] | [3] | [16] | [4] | [12] | [7] | [14] | [8]
